Reference: PMC7662321, “Andrographolide and Its 14-Aryloxy Analogues Inhibit Zika and Dengue Virus Infection” (Molecules, 2020)

Legend:
[1] = MTT cytotoxicity assay in BHK-21 cells; type: cell-based; details: hamster, BHK-21 cells (baby hamster kidney), 24 h post-treatment
Experimental: (§1) Cytotoxicity of each compound towards cells for four selected cell lines in the range of 1 to 500 µM was evaluated using the MTT (3-(4,5-dimethylthiazol-2-yl)-2,5-diphenyltetrazolium bromide) assay at 24 h post-treatment, in parallel with control and vehicle-treated cells (0.1% dimethyl sulfoxide (DMSO)). The 50% cytotoxic concentration (CC50) values calculated from the dose-response curve (Supplementary Figures S2–S5) are shown in Table 1. Overall, a range of cytotoxicities were seen from the four compounds across the […]. The most cytotoxic combination was ZAD-1 and BHK-21 cells, while the least cytotoxic combination was andrographolide and BHK-21 cells (Table 1).
(§2) A549 cells were cultured in ninety-six-well tissue culture plates under standard conditions until the cells reached 90% confluence. The cell culture medium was removed and then cells were incubated with various concentrations of andrographolide (1–100 μM) diluted in complete medium with FBS prior to being cultured for 24 h under standard conditions before analysis using either the Vybrant MTT Cell proliferation assay kit (V13154, Invitrogen) or the alamarBlue (Thermo Fischer Scientific, Waltham, MA, USA) assay kit according to the manufacturers recommendations. Values were determined from 8 (MTT assay) or 3 (alamarBlue) independent replicates. Negative controls (only media and media with 0.1% DMSO) and positive controls (5% DMSO) were included. To determine cell number, cell cultures were trypsinized by the addition of 0.25% Trypsin/0.1% ethylelediaminetetraacetic acid (EDTA) for 3 min and then cell suspensions were diluted with 0.4% trypan blue solution. Cells were counted using a hemocytometer. Cell morphology was additionally observed under an inverted microscope after 24 h treatment with various concentrations of each compound.
(§3) Figu re S2. Cytotoxicity of ZAD -1 (A), ZA D-2 (B), ZA D-3 (C), and andro grapholide (D) to BHK- 21 (baby hamster kidney) cells. BHK- 21 cells were incubated with various concentrations of each compound for 24 hrs followed by MTT cell viability assay. The experiment was undertaken independently in 4 replicates.
(§4) DMSO at the same concentrations was used as a control. 10% ethanol, PBS, and milli- Q water were used as a positive control of cell death. The bars show mean ± SD. […]

[2] = MTT cytotoxicity assay in Vero cells; type: cell-based; details: African green monkey, Vero cells (monkey kidney), 24 h post-treatment
Experimental: as §1, §2
Figu re S3. Cytotoxicity of ZAD -1 (A), ZA D-2 (B), ZA D-3 (C), and andro grapholide (D) to Ve r o (monkey kidney) cells. Ve r o cells were incubated with various concentrations of each compound for 24 hrs followed by MTT cell viability assay. The experiment was undertaken independently in 4 replicates. DMSO at the same concentrations was used as a control. 10% ethanol, PBS, and milli- Q water were used as a positive control of cell death. The bars show mean ± SD. […]

ZIKV = assay: Percentage of ZIKV infection of A549 cells by flow cytometry; type: cell-based, Zika virus; details: A549, MOI 5, 10 and 25 µM, 24 h, vs vehicle
Experimental: To confirm the effects of andrographolide and the andrographolide analogues on ZIKV infection, A549 cells were infected with ZIKV at MOI of 5 for 2 h, and subsequently treated with the compounds at concentrations of 10 and 25 μM or with vehicle for 24 h. The cells were harvested for determination of the percentage of infection by flow cytometry, while the supernatants were collected for determination of viral titer by standard plaque assay.
HEK293T/17 or A549 cells were cultured in six-well plates under standard conditions until the cells reached 80% confluence. HEK293T/17 cells were infected with DENV 2, while A549 cells were infected with ZIKV Thai strain at MOI 5 for 2 h at 37 °C and 5% CO2 in culture medium without FBS. Mock infection was undertaken in parallel. After the infection period, the medium was removed and replaced with complete medium (including FBS) containing 0.1% DMSO (no treatment control) or the appropriate concentration of each compound and cells were again incubated under standard conditions. At 24 h post-treatment, cells were harvested for determination of effects of compounds on percentage of infection and supernatant was collected for determination of viral productivity. All experiments were undertaken independently in triplicate with duplicate plaque assay.
Mock- or viral-infected cells (with or without compound treatment) were harvested at an appropriate time point then incubated with 10% normal goat serum (NGS; Gibco Invitrogen) in PBS-immunofluorescence assay (IFA) buffer on ice for 30 min. The cells were washed with 800 µL of 1% BSA/PBS-IFA and fixed with 200 µL of 4% paraformaldehyde in PBS-IFA at room temperature in the dark for 20 min. After washing with 800 µL of 1% BSA/PBS-IFA, cells were permeabilized with 200 µL of 0.2% Triton X-100 in PBS-IFA for 10 min at room temperature in the dark. Subsequently, the cells were washed with 800 µL of 1% BSA/PBS-IFA followed by overnight incubation with 50 µL of primary antibody (1:150 dilution of pan-specific anti-dengue virus E protein antibody HB114 for DENV and 1:2 dilution of anti-flavivirus antibody HB112 for ZIKV). After washing twice with 800 µL of 1% BSA/PBS-IFA, the cells were incubated with 50 µL of a goat anti-mouse IgG conjugated with fluorescein isothiocyanate (FITC; KPL, Guilford, UK) diluted 1:40 with 1% BSA/PBS-IFA at room temperature in the dark for 1 h. The cells were washed twice with 800 µL of 1% BSA/PBS-IFA and resuspended in 100 µL of PBS-IFA. The fluorescence signal was analyzed by flow cytometry on a BD FACalibur cytometer (Becton Dickinson, BD Biosciences, San Jose, CA, USA) using CellQuest™ software (Version 6). All experiments were undertaken independently in triplicate. All raw flow cytometry data plots are provided in Supplementary Figures S13–S19.

[3] = MTT cytotoxicity assay in A549 cells; type: cell-based; details: human, A549 cells (human lung carcinoma), 24 h post-treatment
Experimental: as §1, §2
as §3, with “S4.” for “S2.”, “A549 (human lung carcinoma)” for “BHK- 21 (baby hamster kidney)”, “A549” for “BHK- 21”
as §4

[4] = MTT cytotoxicity assay in HEK293T/17 cells; type: cell-based; details: human, HEK293T/17 cells (human embryonic kidney), 24 h post-treatment
Experimental: as §1, §2
Figu re S5. Cytotoxicity of ZAD -1 (A), ZA D-2 (B), ZA D-3 (C), and andro grapholide (D) to HEK293T/17 (human embryonic kidney) cells.
HEK293T/17 cells were incubated with various concentrations of each compound for 24 hrs followed by MTT cell viability assay. The experiment was undertaken independently in 4 replicates. DMSO at the same concentrations was used as a control.
10% ethanol, PBS, and milli- Q water were used as a positive control of cell death. […]

DENV 2 = assay: Percentage of DENV 2 infection of HEK293T/17 cells by flow cytometry; type: cell-based, dengue virus; details: HEK293T/17, MOI 5, 10 µM, 24 h; exception to the significant reduction
Experimental: The effects of the compounds on DENV-2 infection were evaluated using HEK293T/17 as host cells at MOI of 5. The cells were infected with DENV 2 for 2 h and then the cells were incubated with the compounds at non-cytotoxic (or morphology altering) concentrations of 10 and 25 μM of ZAD-1 and ZAD-3, or 25 and 50 μM of ZAD-2, or 50 and 75 μM of andrographolide or 0.1% DMSO vehicle control. After 24 h of treatment, cells were harvested for determination of the percentage of infection by flow cytometry, while the culture supernatants were collected to determine the viral production.
HEK293T/17 or A549 cells were cultured in six-well plates under standard conditions until the cells reached 80% confluence. HEK293T/17 cells were infected with DENV 2, while A549 cells were infected with ZIKV Thai strain at MOI 5 for 2 h at 37 °C and 5% CO2 in culture medium without FBS. Mock infection was undertaken in parallel. […]
Mock- or viral-infected cells (with or without compound treatment) were harvested at an appropriate time point then incubated with 10% normal goat serum (NGS; Gibco Invitrogen) in PBS-immunofluorescence assay (IFA) buffer on ice for 30 min. […] The fluorescence signal was analyzed by flow cytometry on a BD FACalibur cytometer (Becton Dickinson, BD Biosciences, San Jose, CA, USA) using CellQuest™ software (Version 6). […]

| Structure (SMILES) | CC50 at 24 h [1] [µM] | CC50 at 24 h [2] [µM] | number of ZIKV-infected cells (percentage of infection) (ZIKV) | CC50 at 24 h [3] [µM] | CC50 at 24 h [4] [µM] | percentage of DENV 2 infection (DENV 2) |
| --- | --- | --- | --- | --- | --- | --- |
| C=C1CC[C@@H]2[C@](C)(CO)[C@H](O)CC[C@@]2(C)[C@@H]1C/C=C1/C(=O)OC[C@@H]1Oc1ccc([N+](=O)[O-])cc1OC [ZAD-2] | 218 ± 16 | 179 ± 13 | no significant effects | 194 ± 17 | 197 ± 7 | – |
| C=C1CC[C@@H]2[C@](C)(COC(C)=O)[C@H](O)CC[C@@]2(C)[C@@H]1C/C=C1/C(=O)OC[C@H]1Oc1ccc([N+](=O)[O-])cc1OC [ZAD-3] | 175 ± 7 | 186 ± 25 | no significant effects | 190 ± 22 | 201 ± 25 | exception |
